Assay results from US5521293A (Lever Brothers Company, Division of Conopco, Inc., priority 1995, dated 1996).

Key:
Format in all cases: physicochemical
[1] = Krafft point of aqueous dispersion of aldonamide; conditions: 0.1% in water by weight
Procedure: The temperature at and above which surfactants begin to form micelles instead of precipitates is referred to as the Krafft point (Tk) and at this temperature the solubility of a surfactant becomes equal to its CMC (numerical value at which micelles are formed).
The Krafft point was measured by preparing 650 ml of a 0.1% or 1.0% dispersion of aldonamide in water by weight. If the surfactant was soluble at room temperature, the solution was slowly cooled to 0° C. […] (less than zero). If it precipitated out of solution, the temperature at which precipitation occurs was taken as the Krafft point.
If the surfactant was insoluble at :room temperature, the dispersion was slowly heated until the solution became homogeneous. It was then slowly cooled until precipitation occurred. The temperature at which the surfactant precipitates out of solution upon cooling was taken as the Krafft point.

[2] = Critical micelle concentration (Wilhelmy plate method); conditions: 60° C.
Procedure: The critical micelle concentration (CMC) is defined as the concentration at which a surfactant forms micelles in aqueous solution. Micellization is the preferred interfacial phenomena, since certain surfactant benefits such as detergency (the solubilization of soils), foaming, wetting or emulsification depend on the formation of these aggregates in solution.
The CMC value of C8 /C10 oxypropyl D-gluconamide was determined by plotting surface tension as a function of log(concentration) and extrapolating linear points to obtain an intersection point. The concentration at this point was taken as the CMC. The technique used was the Wilhelmy plate method and the instrument used was a Lauda Auto-Tensiometer. While wishing not to be bound to theory, it is believed that surfactants with low CMC values form micelles more readily at lower concentrations than those with high CMC values.
The critical micelle concentration (CMC) value of C8 /C10 oxypropyl D-gluconamide (molecular weight=375.02 g/mole, 65.9% C8, 34.1% C10) was determined and is set forth below: […]

[3] = Surface tension at the water/air interface; conditions: 60° C.
Procedure: An important characteristic feature that surfactants have is the tendency for them to absorb at the water/air interface in an oriented manner, thereby altering the interfacial free energy of that surface. The surface free energy per unit area or surface tension (γ), is a measure of this work and may be considered as the minimum amount of work required to bring sufficient surfactant molecules to the surface.
The surface tension (γ) value of C8 /C10 oxypropyl D-gluconamide was determined and is set forth below: […]

[4] = Efficiency in surface tension reduction (pC20)
From the text: Since surface tension reduction depends on the replacement of water molecules at the interface by surfactant molecules, the efficiency of a surfactant in reducing interfacial tension should reflect the concentration of surfactant at the interface relative to that in bulk liquid phase. A suitable measure of efficiency with which a surfactant performs this function can be described as pC20. This is defined as the negative logarithm of the bulk phase surfactant concentration necessary to reduce the surface tension of water by 20 dyn/cm and is given as:
In general, pC20 values are usually close to the minimum concentration needed to saturate the interface with surfactant molecules.

[5] = Effectiveness in reducing surface tension (surface pressure at the CMC); conditions: 60° C.
From the text: Effectiveness of a surfactant in reducing surface tension is defined as the maximum reduction in surface tension that can be obtained regardless of the bulk phase surfactant concentration.
As mentioned before, surface tension reduction depends on the replacement of water molecules at the interface by surfactant molecules, therefore the effectiveness of a surfactant in reducing interfacial surface tension should reflect the saturated concentration of surfactant at the interface relative to that in bulk liquid phase. During this process the surface tension of water steadily decreases as bulk phase surfactant concentration increases. This will continue until the concentration reaches the critical micelle concentration (CMC), above which the surface tension remains nearly unchanged and the interface is saturated with surfactant. The surface tension at the CMC is therefore very close to the minimum interfacial tension or maximum surface pressure that the system can achieve. The surface pressure at this point, cmc, is a suitable measure of the effectiveness of a surfactant in reducing surface tension and is given as:
cmc =20+2.3 nRT(Γmax) log[CMC/C20 ]
n=1 which represents the number of ions whose surface concentration changes with the change in liquid phase surfactant concentration.
R=8.314×107 ergs/mol K (Gas Constant)
Γmax =-1/2·303RT(∂γ/∂log [Conc])T=3.85×10^-10 mole/cm^2
CMC/C20 =is the ratio of the critical micelle concentration to the bulk phase surfactant concentration necessary to reduce the surface tension of water by 20 dyn/cm.
The effectiveness of various surfactants in reducing surface tension ( cmc) were determined and are set forth below: […]

[6] = Effectiveness of adsorption at the interface (surface excess concentration at surface saturation); conditions: for surface excess concentration at surface saturation (Γmax): 60° C. (T=333.15K)
From the text: The surface excess concentration at surface saturation (Γmax) is defined as a measure of the effectiveness of surfactant adsorption at the water/air interface and represents the maximum value to which adsorption can be obtained. Effectiveness of adsorption is related to the interfacial area occupied by the surfactant molecule. The smaller the effective cross-sectional area of a surfactant at the interface, the greater its effectiveness of adsorption. The effectiveness of adsorption is an important factor in determining surfactant properties such as detergency, foaming, wetting or emulsification. While not wishing to be bound by theory, it is believed that surfactants that absorb effectively at the interface tend have tightly packed coherent interfacial films and often provide better surfactant benefits than those with loosely packed noncoherent films. The effectiveness of adsorption of C8 /C10 oxypropyl D-gluconarnide was determined using the Gibbs equation given as:
Γmax =-1/2.303RT(∂γ/∂log[Conc])T
(∂γ/∂log[Conc)T =-24.574971 ergs/cm^2 (which is equivalent to the
slope of a plot of γ versus log[Conc]) R=8.3 14×10^7 ergs/mol K (Gas Constant)
The surface excess concentration at surface saturation (Γmax) of various surfactants were determined and are set forth below: […]

[7] = Area per molecule at the interface; conditions: 60° C.
From the text: The area per molecule of a surfactant at the water/air interface provides information on the degree of packing and the orientation of the adsorbed surfactant molecule. While not wishing to be bound by theory, it is believed that surfactants that have small area per molecule values tend to pack more closely at the interface than those with large area per molecule values. From the surface excess concentration at surface saturation (Γmax), the area per molecule (am) of C8 /C10 oxypropyl D-gluconamide was determined and is given by:
am =1×10^16 /Nav Γmax
Γmax =-1/2·303RT(∂γ/∂log[Conc])T
NAV =6.0221×10^23 per gram mole (Avogadro's Number)
The area per molecule (am) of several surfactants were-determined and are set forth below: […]

[8] = Micellar shape and structure (packing parameter)
From the text: A theory of micellar structure, based upon the geometry of various micelle shapes and the space occupied by the surfactant has been disclosed by J. N. Israelachvili, D. J. Mitchell and B. W. Ninham in the J. Chem. Soc. Faraday Trans. 2, 1525, 72, (1976) which is given as the packing parameter (p).
VT =V(CH3) +(nc -1)V(CH2) and represents the volume occupied by the hydrophobic groups in the micellar core at a given temperature.
1c =1.50+1.26 nc Å and represents the length of the hydrophobic group in the core.
am =area per molecule or the cross-sectional area occupied by the hydrophilic group at the interface.
nc =total number of carbons in the alkyl chain.
Values obtained from the packing parameter (p) represent the following structures:
The packing parameter (p) of C8 /C10 oxypropyl D-Gluconamide was determined as follows: […]

Krafft Point (0.1%) [1]: 48 °C
pC20 (in words) [4]: high pC20 value
surface pressure at the CMC (cmc) [5]: 38.5 dyn/cm
surface excess concentration / cross sectional area (in words) [6]: small cross sectional area
surface excess concentration at surface saturation (Γmax) ([6]; listed as C8 /C10 Oxypropyl D-Gluconamide): 3.85 × 10^-10 mole/cm^2
surface excess concentration at surface saturation (Γmax) ([6]; listed as C8 /C10 oxypropyl D-gluconamide): 3.85×10^-10 mole/cm^2
area per molecule (am) [7]: 43.1 Å^2
VT, volume occupied by the hydrophobic groups in the micellar core ([8]; T=333.15° K.): 379.7 Å^3
la, length of the hydrophobic group in the core ([8]; one oxygen atom taken as one methylene group): 17.5 Å
Substance: C8 /C10 oxypropyl D-gluconamide [Q]
CMC / micelle formation (in words) [2]: forms micelles at a surprising low critical micelle concentration
surface tension reduction (in words) [3]: significant reduction in water surface tension
